Test [1] deals with Panel NCI-60 (60 carcinoma cell lines). The test is described as follows: Growth inhibition of human Panel NCI-60 (60 carcinoma cell lines) cells. Format: functional.
Test [2] shares this test system. The test is described as follows: Growth inhibition of human Panel NCI-60 (60 carcinoma cell lines) cells at 10 uM. The class given is functional, cell-based.

Calls of active or inactive are those of the source. The rule behind the calls is not given here.

The GI50 is the concentration giving 50% growth inhibition. A lower GI50 goes with greater sensitivity of the cells. In test [1], `O=C(O)CN[C@H]1[C@H]2C(=O)C=C3S[C@H]4C[C@]31C1=C(N4)C(=O)c3[nH]cc4c3C1=[N+]2CC4` gave a GI50 of 16.9 µM.

In test [1], `N[C@H](CS[C@H]1[C@H]2C(=O)C=C3S[C@H]4C[C@]31C1=C(N4)C(=O)c3[nH]cc4c3C1=[N+]2CC4)C(=O)O` gave a GI50 of over 10 µM. In test [2], the outcome was inactive.

`N[C@@H](CS[C@H]1[C@H]2C(=O)C=C3S[C@H]4C[C@]31C1=C(N4)C(=O)c3[nH]cc4c3C1=[N+]2CC4)C(=O)NCC(=O)O` returned a GI50 in test [1] of over 10 µM. Besides, the result in test [2] was inactive.

With `O=C1C=C(S[C@H]2[C@H]3C(=O)C=C4S[C@H]5C[C@]42C2=C(N5)C(=O)c4[nH]cc5c4C2=[N+]3CC5)[C@]2(C=C1Br)CCNC1=C2C2=NCCc3c[nH]c(c32)C1=O`, the GI50 in test [1] came to 4.8 µM.

In test [1], `Cn1cnc(S[C@H]2[C@H]3C(=O)C=C4S[C@H]5C[C@]42C2=C(N5)C(=O)c4[nH]cc5c4C2=[N+]3CC5)c1C[C@H](N)C(=O)O` showed a GI50 of over 10 µM.

With `O=C1C2=C3C4=[N+](CCc5c[nH]c1c54)[C@@H]1C(=O)C=C4S[C@@H](C[C@@]43[C@H]1O)N2`, the GI50 in test [1] is 0.79 µM.

In the case of `COC(=O)CN[C@H]1[C@H]2C(=O)C=C3S[C@H]4C[C@]31C1=C(N4)C(=O)c3[nH]cc4c3C1=[N+]2CC4`, the GI50 in test [1] is 2.45 µM.

Regarding `N[C@@H](CS[C@H]1[C@H]2C(=O)C=C3S[C@H]4C[C@]31C1=C(N4)C(=O)c3[nH]cc4c3C1=[N+]2CC4)C(=O)O`, in test [1], the GI50 was over 10 µM. Besides, the result in test [2] was inactive.

`COc1cccc2c1C(=O)c1c(O)c3c(c(O)c1C2=O)C[C@@](O)(C(=O)CO)C[C@@H]3O[C@H]1C[C@H](N)[C@H](O)[C@H](C)O1` [DOXORUBICIN] came in with a GI50 in test [1] of 0.12 µM.

In the case of `O=C1C2=C3C4=[N+](CCc5c[nH]c1c54)[C@H]1C[C@@]34C[C@@H](N2)SC4=CC1=O`, the GI50 in test [1] was 0.8 µM.

In test [1], `N[C@@H](CCC(=O)N[C@@H](CS[C@H]1[C@H]2C(=O)C=C3S[C@H]4C[C@]31C1=C(N4)C(=O)c3[nH]cc4c3C1=[N+]2CC4)C(=O)NCC(=O)O)C(=O)O` registered a GI50 of over 10 µM. In addition, the outcome in test [2] was inactive.

The record behind these values is ChEMBL document CHEMBL6092209, “New Discorhabdin D Analogues from Latrunculia spp. Sponges” (2024).
